# Assay results reported in ChEMBL document CHEMBL1124750, “Diels-Alder adducts of vinyl porphyrins: synthesis and in vivo photodynamic effect against a rat bladder tumor” (1990).
# Key:
# [1] = species on record: Rattus norvegicus; assay: Dose required in phototherapy for twelve days and free of palpable tumor in 100% of male Fischer CDF (F-344)/CrlBr rats
# [2] = species on record: Rattus norvegicus; assay: Dose required in phototherapy for twelve days and palpable tumor detected in 50% of male Fischer CDF (F-344)/CrlBr rats; assay type: functional
# [3] = species on record: Rattus norvegicus; assay: Dose required in phototherapy for twelve days and 73% control in tumor size in male Fischer CDF (F-344)/CrlBr rats; assay type: functional
# [4] = species on record: Rattus norvegicus; assay: Dose required in phototherapy for twelve days in tumor size detected in male Fischer CDF (F-344)/CrlBr rats; assay type: functional
# [5] = species on record: Rattus norvegicus; assay: Compound evaluated for cytotoxicity in male Fischer CDF (F-344)/CrlBr rats; assay type: functional
smiles,measurement,setting,value
CCC1=C(C)c2cc3[nH]c(cc4nc(cc5[nH]c(cc1n2)C1(C)C5=CCC(C(=O)OC)=C1C(=O)OC)C(C)=C4CC)c(C)c3CC (stereo unspecified),Dose,[1],1 mg/kg
CCC1=C(CC)c2cc3[nH]c(cc4nc(cc5[nH]c(cc1n2)C1=CCC(C(=O)OC)=C(C(=O)OC)C15CC)C(CC)=C4CC)c(CC)c3CC (stereo unspecified),Dose,[2],1 mg/kg
C=Cc1c(C)c2cc3nc(cc4nc(cc5[nH]c(cc1[nH]2)C1(C)C5=CCC(C#N)(C#N)C1(C#N)C#N)C(C)=C4CCC(=O)OC)C(CCC(=O)OC)=C3C (stereo unspecified),Dose,[3],1 mg/kg
C=Cc1c(C)c2cc3nc(cc4nc(cc5[nH]c(cc1[nH]2)C1(C)C5=CCC(C(=O)OC)=C1C(=O)OC)C(C)=C4CCC(=O)OC)C(CCC(=O)OC)=C3C (stereo unspecified),Dose,[4],5 mg/kg
CCC1=C(CC)c2cc3[nH]c(cc4nc(cc5[nH]c(cc1n2)C1=CCC(C#N)(C#N)C(C#N)(C#N)C15CC)C(CC)=C4CC)c(CC)c3CC (stereo unspecified),Dose,[5],1 mg/kg
CCC1=C(C)c2cc3[nH]c(cc4[nH]c(cc5nc(cc1n2)C(C)=C5CC)C1(C)C4=CCC(C#N)(C#N)C1(C#N)C#N)c(C)c3CC (stereo unspecified),Dose,[5],1 mg/kg
